Assay results published in patent US20260354376A1, “AGENT FOR IMPROVING ENVIRONMENTAL STRESS TOLERANCE” (OAT Agrio Co., Ltd., priority 2023, published 2026).

Tests used:
Assay type in all cases: in vivo
paddy rice (Koshihikari) [1] = test: Test Example 5: salt stress tolerance improvement in rice hydroponics (regenerated root length, sodium chloride); settings: sodium chloride 120 mM, 6 days, untreated = 100
Protocol: (§1) In Example 5, a liquid culture medium prepared by diluting OAT House Fertilizer (registered trademark) Formulation A, manufactured by OAT Agrio Co., Ltd., was placed in an erlenmeyer flask. Then, sodium chloride was added to the liquid culture medium to give a final concentration of 120 mM, and the capsanthin or paprika pigment was added to the liquid culture medium to give the concentrations shown in Table 3. Next, paddy rice (Koshihikari) was grown to seedlings in culture soil, and then the roots were cut to a predetermined length. Five of the seedlings were inserted into each erlenmeyer flask. Then, after cultivation for 6 days, the length of the roots of the rice was measured, and the length of regenerated roots was calculated.
In Comparative Example 7, the same test as in Example 5 was repeated, except for using the liquid culture medium not containing the capsanthin or paprika pigment.
In Reference Example 4, the same test as in Example 5 was repeated, except for using the liquid culture medium containing a commercially available material for improving salt tolerance (material B) at the dilution factor shown in Table 5, instead of the capsanthin and paprika pigment.
The results of Example 5 and Reference Example 4 are expressed as the ratio (%) with respect to the result of Comparative Example 7 (untreated group) taken as 100.

paddy rice (Koshihikari) [2] = test: Test Example 3: growth-promoting effect in rice hydroponics (regenerated root length, 25 °C); settings: 25° C. (Growth Promotion), 6 days, untreated = 100
Protocol: In Example 3, a liquid culture medium prepared by diluting OAT House Fertilizer (registered trademark) Formulation A, manufactured by OAT Agrio Co., Ltd., was placed in an erlenmeyer flask. The capsanthin concentration in the paprika pigment (manufactured by San-Ei Gen F. F. I., Inc.) was measured by high performance liquid chromatography at General Incorporated Association Japan Food Research Laboratories. As a result, about 221 mg of capsanthin was contained in 100 g of the paprika pigment. The measurement conditions were as follows. • Model: LC-20 (manufactured by Shimadzu Corporation) • Detector: UV-VIS absorption spectrometer SPD-20AV (manufactured by Shimadzu Corporation) • Column: Shim-pack CLC-SIL (M) (size: 4.6 mm×150 mm) (manufactured by Shimadzu Corporation) • Column temperature: 30 °C. • Mobile phase: mixture of hexane and acetone (81:19) • Flow rate: 1.1 mL/min • Measurement wavelength: 474 nm • Injection volume: 30 μL
Next, paddy rice (Koshihikari) was grown to seedlings in culture soil, and then the roots of the rice were cut to a predetermined length. Five of the cut seedlings were inserted into each erlenmeyer flask containing the above-described liquid culture medium. Then, after cultivation at 25 °C for 6 days, the length of the roots of the rice was measured, and the length of regenerated roots was calculated.
In Comparative Example 5, the same test as in Example 3 was repeated, except for using the liquid culture medium not containing the capsanthin or paprika pigment.
In Reference Example 3, the same test as in Example 3 was repeated, except for using the liquid culture medium containing a commercially available material for improving high-temperature tolerance (material A) at the dilution factor shown in Table 3.
The dilution factor is shown for Reference Example 3, because the content of the active ingredient in the commercially available product is unknown.
The results of Example 3 and Reference Example 3 are expressed as the ratio (%) with respect to the result of Comparative Example 5 (untreated group) taken as 100.

paddy rice (Koshihikari) [3] = test: Test Example 4: high-temperature stress tolerance improvement in rice hydroponics (regenerated root length, 35 °C); settings: for Ratio to Untreated Group (length of regenerated roots): 35 °C (High-Temperature Stress), 6 days, untreated = 100
Protocol: as §1, with “4,” for “5,”, “Then,” for “Then, sodium chloride was added to”, “above-described” for “liquid culture medium to give a final concentration of 120 mM, and the”, “4.” for “3.”, “cultivation at 35 °C” for “cultivation”
In Comparative Example 6, the same test as in Example 4 was repeated, except for using the liquid culture medium not containing the capsanthin or paprika pigment.
The results of Example 4 are expressed as the ratio (%) with respect to the result of Comparative Example 6 (untreated group) taken as 100.

[4] = tested on: wheat (variety: Chikugoizumi); test: Test Example 11: dryness stress tolerance improvement on wheat (weight of grains per plant); settings: dryness stress (irrigation about half), 0.1%
Description: In Example 11, wheat (variety: Chikugoizumi) was sown in 1/5000a Wagner pots and cultivated at a density of 2 plants/pot. Next, all pots were irrigated with the same amount of tap water until the ear-emergence stage of wheat, and irrigation with a chemical solution was started after the ear emergence. In this test, dryness stress was induced by reducing the amount of irrigation to about half of the normal amount. After yellow ripening of the wheat was confirmed, the aboveground portions of the wheat were harvested, and the weight of grains per plant was investigated. A 30 ppm aqueous solution of the paprika pigment was used as the chemical solution.
In Comparative Example 13, the same test as in the test of Example 11 using the paprika pigment was repeated, except for using water for irrigation after the ear emergence.
In Reference Example 10, the same test as in the test of Example 11 using the paprika pigment was repeated, except for using a commercially available material for improving salt tolerance (material B) at the dilution factor shown in Table 11. […]
The results of Example 11, and Reference Examples 10 and 11 are expressed as the ratio (%) with respect to the result of Comparative Example 13 (untreated group) taken as 100.

Structure (SMILES)	Ratio to Untreated Group (length of regenerated roots) (paddy rice (Koshihikari) [1]; capsanthin 0.0000663 ppm)	Ratio to Untreated Group (length of regenerated roots) (paddy rice (Koshihikari) [1]; capsanthin 0.000221 ppm)	Ratio to Untreated Group (length of regenerated roots) (paddy rice (Koshihikari) [1]; capsanthin 0.00221 ppm)	Ratio to Untreated Group (length of regenerated roots) (paddy rice (Koshihikari) [1]; capsanthin 0.00663 ppm)	Ratio to Untreated Group (length of regenerated roots) (paddy rice (Koshihikari) [1]; capsanthin 0.0221 ppm)	Ratio to Untreated Group (length of regenerated roots) (paddy rice (Koshihikari) [1]; capsanthin 0.0663 ppm)	Ratio to Untreated Group (length of regenerated roots) (paddy rice (Koshihikari) [2]; capsanthin 0.00000663 ppm)	Ratio to Untreated Group (length of regenerated roots) (paddy rice (Koshihikari) [2]; capsanthin 0.0000663 ppm)	Ratio to Untreated Group (length of regenerated roots) (paddy rice (Koshihikari) [2]; capsanthin 0.000221 ppm)	Ratio to Untreated Group (length of regenerated roots) (paddy rice (Koshihikari) [2]; capsanthin 0.00221 ppm)	Ratio to Untreated Group (length of regenerated roots) (paddy rice (Koshihikari) [3]; capsanthin 0.00000663 ppm)	Ratio to Untreated Group (length of regenerated roots) (paddy rice (Koshihikari) [3]; capsanthin 0.0000663 ppm)	Ratio to Untreated Group (length of regenerated roots) (paddy rice (Koshihikari) [3]; capsanthin 0.000221 ppm)	Ratio to Untreated Group (length of regenerated roots) (paddy rice (Koshihikari) [3]; capsanthin 0.00221 ppm)	Ratio to Untreated Group (length of regenerated roots) (paddy rice (Koshihikari) [3]; capsanthin 0.00663 ppm)	Ratio to Untreated Group (length of regenerated roots) (paddy rice (Koshihikari) [3]; capsanthin 0.0221 ppm)	Ratio to Untreated Group (length of regenerated roots) (paddy rice (Koshihikari) [3]; capsanthin 0.0663 ppm)	effect compared with paprika pigment (in words) (paddy rice (Koshihikari) [3]; Tables 3 to 5 (25 °C, 35 °C, sodium chloride), same concentrations of capsanthin)	Weight of Grains, Average ([4]; untreated 7.3)	Weight of Grains, Ratio to Untreated Group ([4]; untreated = 100)
CC1=C(/C=C/C(C)=C/C=C/C(C)=C/C=C/C=C(C)/C=C/C=C(C)/C=C/C(=O)[C@]2(C)C[C@@H](O)CC2(C)C)C(C)(C)C[C@H](O)C1 [Capsanthin, capsanthin]	104%	103%	107%	114%	111%	126%	104%	102%	102%	108%	115%	132%	113%	122%	114%	109%	140%	comparable effect to that of the paprika pigment		
CC(=O)O [Potassium Acetate, potassium acetate]																			9.3 g DW/Plant	126%
